Assay results published in patent US12492211B2, “Crystalline form of nitrogen-containing tricyclic compound and use thereof” (SUNSHINE LAKE PHARMA CO., LTD., priority 2019, dated 2025).

What was measured:
[1] = Pharmacokinetic test in Beagle dogs, oral capsules; format: in vivo; settings: 5 mg/kg oral
Method: The crystal form A of compound having Formula (I) named 2-((5-cyclopropyl-3-(2,6-dichlorophenyl)isoxazol-4-yl)methoxy)-10H-spiro[benzo[6,7]oxepino[3,2-b]pyridine-11,1′-cyclopropane]-7-carboxylic acid was filled into capsules, which was for oral administration.
8-12 kg Male Beagle dogs were given 5 mg/kg test sample orally, with 3 animals in each group. Blood samples were taken at time points of 0.25, 0.5, 1.0, 2.0, 4.0, 6.0, 8.0, 12 and 24 h. Standard curve was plotted based on concentrations of the samples in a suitable range, the concentration of the test sample in the plasma sample was measured and quantified by AB SCIEX API4000 LC-MS/MS at MRM mode. Pharmacokinetic parameters were calculated according to drug concentration-time curve using a noncompartmental model by WinNonLin 6.3 software.

[2] = Stability test: high-temperature test (60° C.); format: physicochemical; settings: for Purity (%): HPLC
Method: (§1) (1) High-temperature test: A batch of the test sample was taken into a flat weighing bottle, divided into ≤5 mm thick thin layer. The sample was placed at 60° C. for 30 days. The sample was then sampled at day 5, day 10 and day 30, and the change of the sample's color was observed. The purity of the sample was detected by HPLC, and the structure of the sample was analyzed by X-ray powder diffraction, the change of X-ray powder diffraction in high temperature test was […] as shown in FIG. 4.

[3] = Stability test: high-humidity test (25° C., RH 90%±5%); format: physicochemical; settings: for Appearance / Purity (%): High-humidity 25° C., RH 90%±5%; for Purity (%): HPLC
Method: as §1, with “(2) High-humidity” for “(1) High-temperature”, “25° C., RH 90%±5%” for “60° C.”, “humidity” for “temperature”, “5.” for “4.”

[4] = Stability test: light test (4500±500lx, UV); format: physicochemical; settings: for Appearance / Purity (%): Light 4500±500lx, UV; for Purity (%): HPLC
Method: as §1, with “(3) Light” for “(1) High-temperature”, “placed in an opened light box (with UV)” for “placed”, “the illuminance 4500±500lx, UV light ≥0.7 w/m^2” for “60° C.”, “13” for “10”, “light” for “high temperature”, “6.” for “4.”

[5] = Hygroscopicity test by dynamic moisture adsorption (DVS); format: physicochemical; settings: relative humidity of 80%
Method: The description of the hygroscopic feature and the definition of the hygroscopic weight gain (Chinese Pharmacopoeia 2015 edition, Appendix 9103 Guidelines for Drug Hygroscopicity Tests, experimental conditions: 25° C.±1° C., 80%±2% relative humidity) are as described in the table below.
An appropriate amount of the test sample was taken and the hygroscopicity of the test sample was tested by dynamic moisture adsorption device. […] That is, the crystal form A of the invention is not easily deliquescent under the influence of high humidity.

[6] = dog, plasma, male Beagle dogs, capsules
[7] = High-temperature 60° C., 5 days
[8] = High-temperature 60° C., 10 days
[9] = High-temperature 60° C., 30 days

## O=C(O)c1ccc2c(c1)Oc1ccc(OCc3c(-c4c(Cl)cccc4Cl)noc3C3CC3)nc1C1(CC1)C2 [Crystal form A, 2-((5-cyclopropyl-3-(2,6-dichlorophenyl)isoxazol-4-yl)methoxy)-10H-spiro[benzo[6,7]oxepino[3,2-b]pyridine-11,1′-cyclopropane]-7-carboxylic acid]
[1]; conclusion in words
  exposure in Beagle dogs: relatively large exposure
[1]; [6]
  AUC(0-t): 237 ng·h/mL
  Cmax: 86 ng/mL
[1]; male Beagle dogs, capsules
  Tmax: 40 min
[2]; 0 days (initial sample)
  Appearance: White
  Purity (%): 99.44%
[2]; [7]
  Appearance: White
  Purity (%): 99.33%
[2]; [8]
  Appearance: White
  Purity (%): 99.35%
[2]; [9]
  Appearance: White
  Purity (%): 99.45%
[2]; high-temperature, up to 30 days
  changes of appearance, chemical purity and crystal form: no obvious changes
[3]; 5 days
  Appearance: White
  Purity (%): 99.55%
[3]; 10 days
  Appearance: White
  Purity (%): 99.39%
[3]; 30 days
  Appearance: White
  Purity (%): 99.42%
[3]; high-humidity, up to 30 days
  changes of appearance, chemical purity and crystal form: no obvious changes
[4]; 5 days
  Appearance: White
  Purity (%): 99.53%
[4]; 13 days
  Appearance: White
  Purity (%): 99.31%
[4]; 30 days
  Appearance: White
  Purity (%): 99.43%
[4]; light, up to 30 days
  changes of appearance, chemical purity and crystal form: no obvious changes
[5]
  hygroscopic feature according to the criterion for the hygroscopic weight gain: no or almost none hygroscopicity
  weight gain after equilibrium: less than 0.1%
